This is an account of results in patent US20250326732A1 (Pretzel Therapeutics, Inc., priority 2021, published 2025).

What is called IC50 is the midpoint of a concentration-inhibition curve.

The target in the experiment is POLRMT (Homo sapiens (Human), UniProt O00411). Description: homogeneous TR-FRET assay of mitochondrial transcription (inhibition of POLRMT). The class given is biochemical. The conditions noted are these: 7.5 nM POLRMT, 15 nM TFB2M, 30 nM TFAM, 0.5 nM DNA template, 500 μM NTPs, 37° C. for 60 minutes. As to the method:
The ability of some compounds of the present invention to inhibit POLRMT were determined in a homogeneous TR-FRET Assay using high-throughput screening in a 384-well plate format. […] Detection of the product is facilitated by hybridization of two DNA-oligonucleotide probes to specific and adjacent sequences within the RNA product sequence. Upon annealing of the probes, two fluorophores are coupled directly to an acceptor nucleotide probe (ATTO647, 5′), or introduced via a coupled streptavidin with a biotinylated donor nucleotide probe (Europium cryptate) that is brought into sufficient proximity to serve as a fluorescence-donor-acceptor pair. Thus, a FRET signal at 665 nm is generated upon excitation at 340 nm.
The DNA template is restriction linearized proximal to the promotor 3′-end (pUC-LSP). […] No nucleotide triphosphate mix is added to negative control samples. Microplates with compounds to be tested in the assay are prepared from 10 mM compound stocks in 100% DMSO, equal amounts of DMSO without any compound are added to positive control and negative control samples.
During the incubation, a mix of the detection reagents is prepared in a buffer such that the enzymatic reaction is terminated due to chelating of Mg-ions and increased ionic strength, containing 50 mM Tris-HCl (pH 7.5), 700 mM NaCl, 20 mM EDTA, and 0.01% (w/v) Tween-20. Europium-streptavidin is pre-incubated with a 200-fold molar excess of a random sequence oligonucleotide to block unspecific binding of oligo, for two hours at ambient temperature in the dark. Afterwards, the blocked Europium-streptavidin is kept on ice until use.
At the end of the enzymatic reaction time, 5 μL detection oligo mix in the detection buffer is added, and assay plates are mixed and kept at ambient temperature for one hour, protected from light. The concentration of the Acceptor nucleotide oligo (e.g., ATTO647N-5′-[…]-3′) and Donor nucleotide oligo (e.g., bio-5′-[…](-bio)[…]-bio-3′) in each assay well is 1 nM, and 3 nM, respectively.
After incubation with oligo mix, 5 μL of pre-blocked Europium-streptavidin reagent is dispensed to each assay well, assay plates are again mixed and kept at ambient temperature for one hour, protected from light.
The generated signal is measured with BMG Pherastar microtiter plate reader with a TRF light unit, using excitation at 340 nm, an integration time of 200 μs, and a delay time of 100 μs, before detection at 620 nm and 665 nm. The ratio of donor- and acceptor-fluorescence is used as a measure of the generated transcript product (i.e. enzymatic activity).

Sequence of POLRMT (O00411 42-1230): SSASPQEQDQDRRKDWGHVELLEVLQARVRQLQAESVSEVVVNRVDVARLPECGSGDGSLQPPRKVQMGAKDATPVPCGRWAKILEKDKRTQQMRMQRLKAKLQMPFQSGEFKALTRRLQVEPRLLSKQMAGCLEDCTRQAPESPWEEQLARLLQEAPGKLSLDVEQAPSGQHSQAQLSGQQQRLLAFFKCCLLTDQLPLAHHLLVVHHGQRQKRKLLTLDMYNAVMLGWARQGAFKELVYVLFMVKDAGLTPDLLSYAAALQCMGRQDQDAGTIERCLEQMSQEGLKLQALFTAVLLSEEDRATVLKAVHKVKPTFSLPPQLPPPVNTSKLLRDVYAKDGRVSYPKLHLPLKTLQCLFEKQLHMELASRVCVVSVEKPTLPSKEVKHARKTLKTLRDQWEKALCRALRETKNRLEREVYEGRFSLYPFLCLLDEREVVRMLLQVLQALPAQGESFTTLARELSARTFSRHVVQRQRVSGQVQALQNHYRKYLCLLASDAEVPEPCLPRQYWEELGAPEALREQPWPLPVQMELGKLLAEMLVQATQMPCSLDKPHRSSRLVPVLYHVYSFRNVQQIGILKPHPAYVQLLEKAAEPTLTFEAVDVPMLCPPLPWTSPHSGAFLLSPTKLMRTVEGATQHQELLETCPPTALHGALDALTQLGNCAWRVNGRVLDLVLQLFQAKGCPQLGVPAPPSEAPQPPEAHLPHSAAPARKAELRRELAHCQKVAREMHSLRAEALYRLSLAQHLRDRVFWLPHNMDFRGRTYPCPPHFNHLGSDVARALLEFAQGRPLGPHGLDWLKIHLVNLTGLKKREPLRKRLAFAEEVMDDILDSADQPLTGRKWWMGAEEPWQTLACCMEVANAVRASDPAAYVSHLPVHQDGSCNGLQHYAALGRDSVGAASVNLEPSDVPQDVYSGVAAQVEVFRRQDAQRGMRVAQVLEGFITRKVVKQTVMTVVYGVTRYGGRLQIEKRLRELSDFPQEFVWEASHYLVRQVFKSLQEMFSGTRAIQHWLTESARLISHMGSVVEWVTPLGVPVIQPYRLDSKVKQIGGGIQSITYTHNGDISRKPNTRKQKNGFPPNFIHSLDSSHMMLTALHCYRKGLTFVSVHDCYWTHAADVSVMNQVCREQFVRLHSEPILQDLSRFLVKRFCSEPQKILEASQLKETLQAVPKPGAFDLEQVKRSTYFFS

For “3-methoxy-2-((2-oxo-4-phenyl-2H-chromen-7-yl)amino)propanamide [Example 198]”, it took 2 µM to reach half-maximal inhibition (IC50).

For `Cc1ccccc1-c1cc(=O)oc2cc([C@H]3C[C@H]3C(=O)O)ccc12` (racemic) [Example 226, (cis)-2-(2-oxo-4-(o-tolyl)-2H-chromen-7-yl)cyclopropane-1-carboxylic acid], the concentration for half-maximal inhibition (IC50) stood at 0.4 µM.

As for `Cc1ccccc1-c1cc(=O)oc2cc([C@@H]3C[C@H]3C(=O)O)ccc12` (relative stereo) [Example 227, (trans)-2-(2-oxo-4-(o-tolyl)-2H-chromen-7-yl)cyclopropane-1-carboxylic acid], inhibition was half-maximal at 3 µM (IC50).

On to `CNC(=O)[C@@H]1C[C@@H]1c1ccc2c(-c3ccccc3C)cc(=O)oc2c1` (relative stereo) [Example 231, (cis)-N-methyl-2-(2-oxo-4-(o-tolyl)-2H-chromen-7-yl)cyclopropane-1-carboxamide], for which 0.4 µM corresponded to half-maximal inhibition (IC50). This IC50 is about 7.5-fold lower than that of the molecule before.

As to `CNC(=O)[C@@H]1C[C@H]1c1ccc2c(-c3ccccc3C)cc(=O)oc2c1` (relative stereo) [Example 232, (trans)-N-methyl-2-(2-oxo-4-(o-tolyl)-2H-chromen-7-yl)cyclopropane-1-carboxamide], 2 µM corresponded to half-maximal inhibition (IC50). This IC50 lies about 5-fold higher than the previous one.

Consider `Cc1ccccc1-c1cc(=O)oc2cc([C@H]3C[C@H]3C(=O)N(C)C)ccc12` (relative stereo) [Example 234, (cis)-N,N-dimethyl-2-(2-oxo-4-(o-tolyl)-2H-chromen-7-yl)cyclopropane-1-carboxamide], for which half-maximal inhibition (IC50) required 3 µM.

Take `Cc1ccccc1-c1cc(=O)oc2cc([C@H]3C[C@H]3C(N)=O)ccc12` (relative stereo) [Example 235, (cis)-2-(2-oxo-4-(o-tolyl)-2H-chromen-7-yl)cyclopropane-1-carboxamide]: the IC50 is 2 µM.

The molecule `Cc1ccccc1-c1cc(=O)oc2cc([C@@H]3C[C@H]3C(=O)N(C)C)ccc12` (relative stereo) [Example 236, (trans)-N,N-dimethyl-2-(2-oxo-4-(o-tolyl)-2H-chromen-7-yl)cyclopropane-1-carboxamide] showed an IC50 of 7 µM.

The molecule `Cc1ccccc1-c1cc(=O)oc2cc([C@@H]3C[C@H]3C(N)=O)ccc12` (relative stereo) [Example 238, chiral-(trans)-2-(2-oxo-4-(o-tolyl)-2H-chromen-7-yl)cyclopropane-1-carboxamide] returned an IC50 of 3 µM.

Molecule `Cc1ccccc1-c1cc(=O)oc2cc([C@@H]3C[C@H]3C(N)=O)ccc12` (relative stereo) [Example 239, chiral-(trans)-2-(2-oxo-4-(o-tolyl)-2H-chromen-7-yl)cyclopropane-1-carboxamide] displayed an IC50 of 0.9 µM.

Regarding `Cc1ccccc1-c1cc(=O)oc2cc([C@@H]3C[C@H]3C(=O)N(C)C)ccc12` (relative stereo) [Example 240, chiral-(trans)-N,N-dimethyl-2-(2-oxo-4-(o-tolyl)-2H-chromen-7-yl)cyclopropane-1-carboxamide], the IC50 was 8 µM.

Take `Cc1ccccc1-c1cc(=O)oc2cc([C@@H]3C[C@H]3C(=O)N(C)C)ccc12` (relative stereo) [Example 241, chiral-(trans)-N,N-dimethyl-2-(2-oxo-4-(o-tolyl)-2H-chromen-7-yl)cyclopropane-1-carboxamide]: the IC50 was found to be 5 µM.

In turn, `CCOC(C)c1ccc2c(-c3ccc(F)cc3Cl)cc(=O)oc2c1` (single isomer, unassigned) [Example 41, 4-(2-chloro-4-fluorophenyl)-7-(1-ethoxyethyl)-2H-chromen-2-one] displayed an IC50 of 1 µM. This IC50 lies about 5-fold lower than the previous one.

`CCOC(C)c1ccc2c(-c3ccc(F)cc3Cl)cc(=O)oc2c1` (single isomer, unassigned) [Example 42, 4-(2-chloro-4-fluorophenyl)-7-(1-ethoxyethyl)-2H-chromen-2-one] had a concentration for half-maximal inhibition (IC50) of 6 µM.

Molecule `Cc1ccccc1-c1cc(=O)oc2cc(CC(C)C(=O)N3CCCCC3)ccc12` (single isomer, unassigned) [Example 62, 7-(2-methyl-3-oxo-3-(piperidin-1-yl)propyl)-4-(o-tolyl)-2H-chromen-2-one] gave an IC50 of 0.08 µM.

For `Cc1ccccc1-c1cc(=O)oc2cc(CC(C)C(=O)N3CCCCC3)ccc12` (single isomer, unassigned) [Example 63, 7-(2-methyl-3-oxo-3-(piperidin-1-yl)propyl)-4-(o-tolyl)-2H-chromen-2-one], the IC50 was found to be 3 µM.

`Cc1ccccc1-c1cc(=O)oc2cc(CC(C)C(=O)N(C)C)ccc12` (single isomer, unassigned) [Example 64, N,N,2-trimethyl-3-(2-oxo-4-(o-tolyl)-2H-chromen-7-yl)propanamide] showed an IC50 of 0.3 µM.

`Cc1ccccc1-c1cc(=O)oc2cc(CC(C)C(=O)N(C)C)ccc12` (single isomer, unassigned) [Example 65, N,N,2-trimethyl-3-(2-oxo-4-(o-tolyl)-2H-chromen-7-yl)propanamide] displayed an IC50 of 17 µM.

`CNC(=O)C(C)Cc1ccc2c(-c3ccccc3C)cc(=O)oc2c1` (single isomer, unassigned) [Example 66, N,2-dimethyl-3-(2-oxo-4-(o-tolyl)-2H-chromen-7-yl)propanamide] came in with a half-inhibitory concentration (IC50) of 0.5 µM.

`CNC(=O)C(C)Cc1ccc2c(-c3ccccc3C)cc(=O)oc2c1` (single isomer, unassigned) [Example 67, N,2-dimethyl-3-(2-oxo-4-(o-tolyl)-2H-chromen-7-yl)propanamide] returned an IC50 of 6 µM. This IC50 is about 12-fold higher than that of the molecule before.

In turn, `Cc1ccccc1-c1cc(=O)oc2cc(CC(C)C(N)=O)ccc12` (single isomer, unassigned) [Example 68, 2-methyl-3-(2-oxo-4-(o-tolyl)-2H-chromen-7-yl)propanamide] had an IC50 of 0.6 µM.

The molecule `Cc1ccccc1-c1cc(=O)oc2cc(CC(C)C(N)=O)ccc12` (single isomer, unassigned) [Example 69, 2-methyl-3-(2-oxo-4-(o-tolyl)-2H-chromen-7-yl)propanamide] gave an IC50 of 5 µM.

`Cc1ccccc1-c1cc(=O)oc2cc(C(C)CC(=O)N3CCC[C@H](C(=O)O)C3)ccc12` (single isomer, unassigned) [Example 81] returned an IC50 of 1 µM.

Molecule `Cc1ccccc1-c1cc(=O)oc2cc(C(C)CC(=O)N3CCC[C@H](C(=O)O)C3)ccc12` (single isomer, unassigned) [Example 82] returned an IC50 of 5 µM.

`Cc1ccccc1-c1cc(=O)oc2cc(CC(C)C(=O)N3CCC[C@H](C#N)C3)ccc12` (single isomer, unassigned) [Example 83] registered an IC50 of 0.06 µM.

With `Cc1ccccc1-c1cc(=O)oc2cc(CC(C)C(=O)N3CCC[C@H](C#N)C3)ccc12` (single isomer, unassigned) [Example 84], the IC50 is 32 µM.

The molecule `Cc1ccccc1-c1cc(=O)oc2cc(CC(C)C(=O)N3CCC[C@H](S(C)(=O)=O)C3)ccc12` (single isomer, unassigned) [Example 85] returned an IC50 of 0.3 µM.

For `Cc1ccccc1-c1cc(=O)oc2cc(CC(C)C(=O)N3CCC[C@H](S(C)(=O)=O)C3)ccc12` (single isomer, unassigned) [Example 86], the IC50 was 5 µM.

The molecule `CCOC(=O)[C@H]1CCCN(C(=O)C(C)Cc2ccc3c(-c4ccccc4C)cc(=O)oc3c2)C1` (single isomer, unassigned) [Example 87] showed an IC50 of 9 µM.

In turn, `CCOC(=O)[C@H]1CCCN(C(=O)C(C)Cc2ccc3c(-c4ccccc4C)cc(=O)oc3c2)C1` (single isomer, unassigned) [Example 88] came in with an IC50 of 0.09 µM.

`Cc1ccccc1-c1cc(=O)oc2cc(CC(C)C(=O)N3CCC[C@H](C(N)=O)C3)ccc12` (single isomer, unassigned) [Example 89] showed an IC50 of 0.1 µM.

For the molecule `Cc1ccccc1-c1cc(=O)oc2cc(CC(C)C(=O)N3CCC[C@H](C(N)=O)C3)ccc12` (single isomer, unassigned) [Example 90], the IC50 came to 8 µM. This IC50 is about 80-fold higher than that of the molecule before.

`CNC(=O)[C@H]1CCCN(C(=O)C(C)Cc2ccc3c(-c4ccccc4C)cc(=O)oc3c2)C1` (single isomer, unassigned) [Example 92] showed a 50% inhibitory concentration (IC50) of 0.2 µM.

`CNC(=O)[C@H]1CCCN(C(=O)C(C)Cc2ccc3c(-c4ccccc4C)cc(=O)oc3c2)C1` (single isomer, unassigned) [Example 93] returned a 50% inhibitory concentration (IC50) of 17 µM. Against the preceding molecule, the IC50 is about 85-fold higher.

Consider `Cc1ccccc1-c1cc(=O)oc2cc(CC(C)C(=O)N3CCC(C(=O)O)CC3)ccc12` (single isomer, unassigned) [Example 94, 1-(2-methyl-3-(2-oxo-4-(o-tolyl)-2H-chromen-7-yl)propanoyl)piperidine-4-carboxylic acid], for which 0.2 µM corresponded to half-maximal inhibition (IC50).
